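1) Cells in 96-well plates. 2) Compound, 48 h, 5 concentrations. 3) Linear interpolation between surrounding doses. 4) Unreached endpoint = highest concentration. At the GI50, growth is halved. The concentration for full growth arrest is given as TGI.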
Key:
Assay in all cases: inhibition of tumour cell growth, NCI panel, 48 h
[1] = tested on: TK-10 renal
[2] = tested on: RXF 393 renal
[3] = tested on: SNB-75 CNS
[4] = tested on: A498 renal
[5] = tested on: HOP-92 NSCLC
[6] = tested on: RPMI-8226 leukemia
[7] = tested on: UACC-62 melanoma
[8] = tested on: IGROV1 ovarian
[9] = tested on: MDA-MB-231 breast
[10] = tested on: NCI-H460 lung

Row | Compound | GI50 [1] | TGI [1] | GI50 [2] | TGI [2] | GI50 [3] | TGI [3] | GI50 [4] | TGI [4] | GI50 [5] | TGI [5] | GI50 [6] | TGI [6] | GI50 [7] | TGI [7] | GI50 [8] | TGI [8] | GI50 [9] | TGI [9] | GI50 [10] | TGI [10]
1 | COc1ccc2c(c1)c(=O)oc1cc(OC/C(C)=N\O)ccc12 | 44.8 µM | > 100 µM | 56.6 µM | > 100 µM | 14.9 µM | 42.9 µM | > 100 µM | > 100 µM | 69.5 µM | > 100 µM | > 100 µM | > 100 µM | 75.5 µM | > 100 µM | > 100 µM | > 100 µM | 42.9 µM | > 100 µM | > 100 µM | > 100 µM
2 | COc1cc2ccc(/C=C\[N+](=O)[O-])cc2cc1OC |  | 9.01 µM |  | 3.51 µM |  | 5.76 µM |  | 29.1 µM |  | 10.1 µM |  | 5.44 µM |  | 21.7 µM |  | 3.92 µM |  | 9.02 µM |  | > 56.4 µM
3 | CCC1C2Cc3ccc(O)cc3C1(CC)CCN2C (stereo unspecified) |  | > 100 µM |  | > 100 µM |  | > 100 µM |  | > 100 µM |  | > 100 µM |  | > 100 µM |  | > 100 µM |  | > 100 µM |  | > 100 µM |  | > 100 µM
4 | COc1ccc(-c2cc(=O)[nH]c3c(OC)c4ccccc4c(OC)c23)cc1 | > 42.4 µM | > 100 µM | 0.409 µM | > 19.9 µM | 0.246 µM | 1.68 µM | 0.145 µM |  | 0.409 µM | > 100 µM | 0.289 µM | > 20.2 µM | 0.396 µM | > 100 µM | 0.47 µM | > 91.5 µM | 1.44 µM | > 100 µM | 0.379 µM | 
5 | COc1ccc(C(=O)c2cc(OC)c(OC)c(OC)c2)cc1OC(=O)CCl | 19.4 µM | > 100 µM | 0.0441 µM | > 100 µM | 0.0257 µM | > 100 µM | 2.07 µM | 7.01 µM |  | > 100 µM | < 0.021 µM | 12.9 µM | 0.565 µM | > 100 µM | 0.359 µM | > 100 µM | 0.0362 µM |  | 0.0399 µM | > 100 µM
6 | O=C1Nc2ccccc2/C1=C/C(=O)c1coc2c1C(=O)c1ccccc1C2=O | > 100 µM | > 100 µM | > 100 µM | > 100 µM | 18.9 µM | > 100 µM | 45.7 µM | > 100 µM | 59.7 µM | > 100 µM | > 100 µM | > 100 µM | 94.4 µM | > 100 µM | > 100 µM | > 100 µM | > 100 µM | > 100 µM | > 100 µM | > 100 µM

Reference: PubChem BioAssay (NCI)
